Test results taken from patent US11746116B2, “Antibiotic resistance breakers” (KING'S COLLEGE LONDON, priority 2017, dated 2023).
Values after ≈ are worked out from the molar mass of the structure shown. Read-outs that look alike come from different tables or passages of the source.

Columns and labels:
Test in all cases: MIC, microdilution broth method
MSSA9144 = type: cell-based, Staphylococcus aureus; settings: MSSA9144; in µg/mL
Ab17978 = type: cell-based; settings: Ab17978, in µg/mL
VSE775 = type: cell-based, Enterococcus faecalis; settings: VSE775; in µg/mL
VRE12201 = type: cell-based, Enterococcus faecalis; settings: VRE12201; in µg/mL
EMRSA15 = type: cell-based, Staphylococcus aureus
M6 = type: cell-based; settings: M6, in µg/mL
PA01 = type: cell-based, Pseudomonas aeruginosa; settings: PA01, in µg/mL
EMRSA16 = type: cell-based, Staphylococcus aureus
VRE12204 = type: cell-based, Enterococcus faecium; settings: VRE12204; in µg/mL

Row | SMILES | MIC (MSSA9144) | MIC (Ab17978; Normal (no PMBN)) | MIC (VSE775) | MIC (VRE12201) | MIC (EMRSA15; EMRSA15, in µg/mL) | MIC (M6; Normal (no PMBN)) | MIC (EMRSA16; EMRSA16, in µg/mL) | MIC (VRE12204) | also measured
1 | O=C(O)c1cn(C2CC2)c2cc(N3CCN(Cc4cccc5cccnc45)CC3)c(F)cc2c1=O [ML-77-052] | 0.5 | 0.25 | 4 | 2 | 64 | 4 |  |  | 
2 | O=C(O)c1cn(C2CC2)c2cc(N3CCN(Cc4ccc(S(=O)(=O)NCCc5c[nH]c6ccccc56)cc4)CC3)c(F)cc2c1=O [ML-77-138] | 0.25-0.5 | 64 |  |  |  |  |  |  | MIC (Ab17978; +PMBN): 1; MIC (PA01; +PMBN): ≤0.12; MIC (M6; +PMBN): 1
3 | C[C@H]1COc2c(N3CC[C@@H](N)C3)c(F)cc3c(=O)c(C(=O)O)cn1c23 [KSN-L44] |  |  |  |  |  |  |  |  | MIC, EMRSA16 (EMRSA16; EMRSA16 (Table 16, role of the terminal pyrimidine ring), in µg/mL): 32; MIC, EMRSA15 (EMRSA15; EMRSA15 (Table 16, role of the terminal pyrimidine ring), in µg/mL): 32
4 | C[C@H]1COc2c(N3CCN(Cc4cccc5ccccc45)CC3)c(F)cc3c(=O)c(C(=O)O)cn1c23 [ML-77-140, (S)-9-fluoro-3-methyl-10-(4-(naphthalen-1-ylmethyl)piperazin-1-yl)-7-oxo-2,3-dihydro-7H-[1,4]oxazino[2,3,4-ij]quinoline-6-carboxylic acid] | 0.125-1 |  | 1-2 | 0.5-1 | 4 |  | 2-4 | 1-2 | 
5 | CCn1cc(C(=O)O)c(=O)c2cc(F)c(N3CCN(Cc4cc(C)cc(C)c4)CC3)cc21 [ML-77-150, 7-(4-(3,5-dimethylbenzyl)piperazin-1-yl)-1-ethyl-6-fluoro-4-oxo-1,4-dihydroquinoline-3-carboxylic acid] | 0.5-1 | 16 | 8 | 8 | 4-8 | 32-64 | 4-8 | 4-8 | 
6 | O=C(O)c1cn(C2CC2)c2cc(N3CCN(Cc4ccc(I)cc4)CC3)c(F)cc2c1=O | 0.12-0.25 |  | 2 | 1-2 | 4 |  | 4 | 4 | 
7 | CCn1cc(C(=O)O)c(=O)c2cc(F)c(N3CCN(Cc4ccc(-n5cccn5)cc4)CC3)cc21 [Compound 3.30, 7-(4-(4-(1H-pyrazol-1-yl)benzyl)piperazin-1-yl)-1-ethyl-6-fluoro oxo-1-4-dihydroquinoline-3-carboxylic acid] | 0.5 |  | 8 | 4-8 | 16-32 |  | 32 | 16 | 
8 | O=C(O)c1cn(C2CC2)c2cc(N3CCN(Cc4cc(=O)[nH]c5ccccc45)CC3)c(F)cc2c1=O [ML-77-058] | 0.25-1 |  |  | 0.5-4 |  | 4-32 |  |  | 
9 | O=C(O)c1cn(C2CC2)c2cc(N3CCN(Cc4cccc5ccsc45)CC3)c(F)cc2c1=O [ML-77-078] | <0.12 | 4-8 | 2-4 | 0.5 | 2 | 32 | 2 | 1-2 | 
10 | CCn1cc(C(=O)O)c(=O)c2cc(F)c(N3CCN(Cc4cccc5ccccc45)CC3)nc21 [ML-77-025] | 0.5-1 |  | 16 | 8 | 2-8 |  | 2-4 | 4 | fold reduction (potentiation) in MIC compared to the parent fluoroquinolone (EMRSA16; EMRSA-16): 64-128 fold; fold reduction (potentiation) in MIC compared to the parent fluoroquinolone (EMRSA15; EMRSA-15): 64-128 fold
11 | O=C(O)c1cn(C2CC2)c2cc(N3CCN(CCc4cccc5ccccc45)CC3)c(F)cc2c1=O [ML-77-171] | 0.5 |  | 4 | 2 | 2-4 |  | 4 | 4 | 
12 | CCn1cc(C(=O)O)c(=O)c2cc(F)c(N3CCN(Cc4ccc(-c5ccccc5)cc4)CC3)cc21 [ML-77-134, 7-(4-([1,1′-biphenyl]-4-ylmethyl)piperazin-1-yl)-1-ethyl-6-fluoro-4-oxo-1,4-dihydroquinoline-3-carboxylic acid] | 2 |  | 2 | 4 | 2 | 64 | 4 | 2 | 
13 | O=C(O)c1cn(C2CC2)c2cc(N3CCN(Cc4cccc5c4CCCC5)CC3)c(F)cc2c1=O [ML-77-076] | 0.25 |  | 2 | 1-2 | 1 | 8 | 1-2 | 1-2 | 
14 | CCn1cc(C(=O)O)c(=O)c2cc(F)c(N3CCN(c4cccc5ccccc45)CC3)cc21 [ML-77-169, 1-ethyl-6-fluoro-7-(4-(naphthalen-1-yl)piperazin-1-yl)-4-oxo-1,4-dihydroquinoline-3-carboxylic acid] | 2 |  | 2 | 2 | 1-2 |  | 1 | 1 | 
15 | O=C(O)c1cn(C2CC2)c2cc(N3CCN(Cc4ccc5ccccc5c4)CC3)c(F)cc2c1=O [ML-77-036] | 0.12 | 8 | 0.5-2 | 0.5 | 2 | 4-32 | 2 | 2 | 
16 | C[C@H]1COc2c(N3CCCN(c4ncc(F)cn4)CC3)c(F)cc3c(=O)c(C(=O)O)cn1c23 [ML-83-034] |  |  |  |  |  |  |  |  | MIC (EMRSA16; Staphylococcus aureus (EMRSA16), Table 12, read-out: MIC): 16 µg/mL (≈ 35 µM); MIC (EMRSA15; Staphylococcus aureus, Staphylococcus aureus (EMRSA15), Table 12, read-out: MIC): 8 µg/mL (≈ 17.5 µM)
17 | CCn1cc(C(=O)O)c(=O)c2cc(F)c(N3CCNCC3)nc21 [Enoxacin, enoxacin, reference compound] | 2 |  | 16 | 8 |  |  |  | 4-8 | 
18 | O=C(O)c1cn(C2CC2)c2cc(N3CCN(Cc4ccc(F)c5ccccc45)CC3)c(F)cc2c1=O [ML-77-048] | 4 | 8 | 8 | 8 | 4 | 64 | 8 |  | 
19 | O=C(O)c1cn(C2CC2)c2cc(N3CCN(Cc4ccc(-c5csnn5)cc4)CC3)c(F)cc2c1=O [ML-77-157] | <0.12 | 0.25-0.5 | 0.5 | 0.5 | 4 | 1 | 8 | 4-8 | 
20 | Cc1nc(-c2ccc(CN3CCN(c4cc5c(cc4F)c(=O)c(C(=O)O)cn5C4CC4)CC3)cc2)no1 [ML-77-163] | ≤0.12 | 0.5-1 | 1-2 | 1 |  | 2 | 32 |  | MIC (PA01; Normal (no PMBN)): 32
21 | CCn1cc(C(=O)O)c(=O)c2cc(F)c(N3CCN(Cc4cccc5ccsc45)CC3)cc21 [ML-77-079] | 0.25 |  | 4 | 0.5-2 | 2 | 32 | 2 | 1-2 | 
22 | CCn1cc(C(=O)O)c(=O)c2cc(F)c(N3CCN(Cc4ccc(-n5cncn5)cc4)CC3)cc21 [Compound 3.32, 7-(4-(4-(1H-1,2,4-triazol-1-yl)benzyl)piperazin-1-yl)-1-ethyl-6-fluoro-4-oxo-1,4-dihydroquinoline-3-carboxylic acid] | 1 |  | 8 | 8 |  |  |  | 16 | 
23 | CCn1cc(C(=O)O)c(=O)c2cc(F)c(N3CCN(CCc4cccc5ccccc45)CC3)cc21 [ML-77-173, 1-ethyl-6-fluoro-7-(4-(2-(naphthalen-1-yl)ethyl)piperazin-1-yl)-4-oxo-1,4-dihydroquinoline-3-carboxylic acid] | 2-4 |  | 4-8 | 4-8 | 4 |  | 4 | 4 | 
24 | O=C(O)c1cn(C2CC2)c2cc(N3CCN(Cc4ccc(-n5cncn5)cc4)CC3)c(F)cc2c1=O [Compound 2.36, 7-(4-(4-(1H-1,2,4-triazol-1-yl)benzyl)piperazin-1-yl)-1-cyclopropyl-6-fluoro-4-oxo-1,4-dihydroquinoline-3-carboxylic acid] | 0.12 |  | 1 | 0.5 | 16-32 |  | 16 | 8 | 
25 | CCn1cc(C(=O)O)c(=O)c2cc(F)c(N3CCN(Cc4ccc(-c5noc(C)n5)cc4)CC3)cc21 [Compound 3.36, 1-ethyl-6-fluoro-7-(4-(4-(5-methyl-1,2,4-oxadiazol-3-yl)-benzyl)piperazin-1-yl)-4-oxo-1,4-dihydroquinone-3-carboxylic acid] | 0.25 |  | 8 | 4 | 16-32 |  | 32 | 8 | 
26 | CCn1cc(C(=O)O)c(=O)c2cc(F)c(N3CCN(Cc4cccc5c4CCCC5)CC3)cc21 [ML-77-077] | 1 | 32-128 | 2 | 2 | 2 | 64 | 2 | 1-2 | 
27 | O=C(O)c1cn(C2CC2)c2cc(N3CCN(c4cccc5ccccc45)CC3)c(F)cc2c1=O [ML-77-168] | 1 |  | 2 | 0.25-0.5 | 1-2 |  | 1 | 1 | 
